Measured values: patent publication US9907797B2, “Combination therapies for overcoming resistance to mitotic agents during chemotherapy” (EMORY UNIVERSITY, priority 2014, dated 2018)

Tests used:
PARP1-CHFR interaction = target: T1, PARP1-CHFR interaction (Homo sapiens, UniProt Q96EP1); assay: Glutathione affinity pull-down of GST tagged PARP1 with CHFR in HEK293 cells; assay type: cell-based; settings: 10 uM, 16 hours
T1 construct: expressed in transfected cells; CHFR endogenous
T1 sequence (Q96EP1 1-664): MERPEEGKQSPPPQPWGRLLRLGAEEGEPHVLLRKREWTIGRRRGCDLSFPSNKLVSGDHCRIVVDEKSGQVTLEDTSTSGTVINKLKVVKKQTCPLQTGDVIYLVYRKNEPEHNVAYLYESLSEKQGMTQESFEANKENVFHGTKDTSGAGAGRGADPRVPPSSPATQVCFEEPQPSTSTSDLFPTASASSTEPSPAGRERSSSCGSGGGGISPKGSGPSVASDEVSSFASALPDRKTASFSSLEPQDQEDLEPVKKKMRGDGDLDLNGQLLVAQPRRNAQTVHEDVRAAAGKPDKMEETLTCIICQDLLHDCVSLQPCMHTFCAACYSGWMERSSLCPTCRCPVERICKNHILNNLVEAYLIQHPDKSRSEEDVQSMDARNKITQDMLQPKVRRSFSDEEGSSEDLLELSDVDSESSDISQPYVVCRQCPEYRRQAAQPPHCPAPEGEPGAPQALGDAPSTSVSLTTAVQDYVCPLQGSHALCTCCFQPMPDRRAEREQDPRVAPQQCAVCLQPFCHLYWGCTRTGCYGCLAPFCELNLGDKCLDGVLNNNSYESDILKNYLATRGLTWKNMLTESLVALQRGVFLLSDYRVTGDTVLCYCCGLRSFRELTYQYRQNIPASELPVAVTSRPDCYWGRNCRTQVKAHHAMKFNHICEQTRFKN
Method: In an attempt to generate possible lead compounds for the pharmacologic inhibition of the CHFR-PARP1 interaction, a high throughput computational screen of 5,256,508 chemical structures in the MCULE database of purchasable compounds using the AutoDockVina algorithm against the published crystal structure of the CHFR-PBZ domain was performed. The 10 most promising ‘hits’ based on Autodock Vina docking scores (<−9.7) were selected for further characterization. Commercially available compounds were tested for their impact on nuclear CHFR levels (FIG. 3A). Several compounds, including ‘A2’, ‘A3’, ‘A4’ and ‘A6’ decreased CHFR levels assayed by western blotting of whole cell extracts. The impact of the above referenced compounds on the PARP1/CHFR interaction were evaluated. HEK293 cells were transfected with GST tagged PARP1 and the interaction with CHFR determined in pull down assays for those 4 compounds. […] In contrast to treatment with ABT-888, ‘A3’ completely disrupted the interaction between GST-tagged PARP-1 and CHFR (FIG. 3B). […] Since it is possible that the co-immunoprecipitation between PARP-1 and CHFR after ‘A3’ treatment was negative due to the fact that CHFR was degraded, the experiment was repeated after transfection with the Ring-domain deleted ΔR-CHFR construct, which maintained both stable CHFR and PARP1 levels even after treatment with ‘A3’. […]

A549 cells [1] = assay: Cell cycle analysis by flow-cytometry, antephase checkpoint; assay type: cell-based; settings: unsynchronized A549 cells, 12 hours, docetaxel 50 nM with A3 10 uM
Description: Cell cycle arrest at G2/M in response to microtubular damage is a hallmark of a functional antephase checkpoint.

CHFR-PARP1 interaction = assay: Glutathione affinity purification of Ring-domain deleted ΔR-CHFR and PARP1 in HEK293 cells; assay type: cell-based; settings: increasing concentrations, 16 hours, ΔR-CHFR construct
Method: (§1) HEK293 cells were stably transfected with the pDEST27-AR-CHFR construct. Deletion of the RING domain in this construct leads to both stable CHFR and PARP1 expression that is unaltered by treatment with increasing concentrations of ‘A3’ for 16 hours. Nonetheless, the interaction between glutathione-affinity purified CHFR-ΔR and PARP1 was decreased by ‘A3’ in a dose dependent fashion. A549 cells were incubated for 16.5 hrs with MG132 and indicated A3 concentration for 16 hrs. At 10 uM A3 concentration CHFR staining is diminished in the nucleus Cells are stained with CHFR.
(§2) In an attempt to generate possible lead compounds for the pharmacologic inhibition of the CHFR-PARP1 interaction, a high throughput computational screen of 5,256,508 chemical structures in the MCULE database of purchasable compounds using the AutoDockVina algorithm against the published crystal structure of the CHFR-PBZ domain was performed. The 10 most promising ‘hits’ based on Autodock Vina docking scores (<−9.7) were selected for further characterization. Commercially available compounds were tested for their impact on nuclear CHFR levels (FIG. 3A). […] The impact of the above referenced compounds on the PARP1/CHFR interaction were evaluated. HEK293 cells were transfected with GST tagged PARP1 and the interaction with CHFR determined in pull down assays for those 4 compounds. […]

H460 cell line = assay: Tumor growth in H460 mouse xenografts; assay type: in vivo, nude mice
Method: Pharmacokinetics of A3 were performed at various time points after iv and oral administration of a single dose of ‘A3’ at 10 mg/kg. 2.5×10^5 H460 cells were transplanted into the flank of nude mice were. 5 days after transplant, I.P. injection of DMSO, A3, docetaxel, or combination commenced. Explanted tumors are smallest in mice that were treated with combination therapy.
The in-vivo effects of ‘A3’, docetaxel and the combination on tumor growth in mouse xenografts, who were previously injected with the H460 cell line were evaluated.

A549 cells [2] = assay: Colony formation assays in A549 cells transfected with shRNA; assay type: cell-based
Method: Various cell lines of different tissues of origin and with different CHFR expression status were exposed to 1 hour of docetaxel and 72 hours of ‘A3’. Effects were defined as 1−colony count (treatment)/colony count (control). The nature of the interaction between the two compounds was analyzed by the Bliss additivity method. […] For subsequent colony formation assays, cell lines were characterized into CHFR expressing vs. CHFR deficient cell lines by Western-Blot.
FIG. 4D knock-down of either CHFR or PARP1 in A549 cells alleviates the synergy that is observed in A549 cells transfected with scrambled shRNA. (*=synergy)
Finally, colony formation assays were performed on a panel of cell lines of different cancer types such as lung-, breast-, and colon cancer.

CHFR = target: T2, CHFR (Homo sapiens, UniProt Q96EP1); assay: Nuclear localization of CHFR (staining) in A549 cells with MG-132; assay type: cell-based; set-up: endogenous in cells; host or cells: A549; settings: A3 in combination with MG-132, A549 cells
T2 sequence (Q96EP1 1-664): T1 sequence (Q96EP1 1-664)
Method: as §1, §2

Cc1ccc(N2C(=O)NC(=O)C(=Cc3cn(Cc4ccccc4)c4ccccc34)C2=O)cc1C [A3, 5-((1-benzyl-1H-indol-3-yl)methylene)-1-(3,4-dimethylphenyl)pyrimidine-2,4,6(1H,3H,5H)-trione]
interaction between PARP1 and CHFR (PARP1-CHFR interaction): completely inhibited an interaction between PARP1 and CHFR | docetaxel induced cell cycle arrest (A549 cells [1]): prevented docetaxel induced cell cycle arrest | interaction between CHFR-ΔR and PARP1 (CHFR-PARP1 interaction): dose dependent inhibition of the interaction between CHFR and PARP1 | tumor growth (H460 cell line; A3 alone compared to DMSO alone, I.P.): did not have a discernable effect on tumor growth | tumor size (H460 cell line; A3 given 4 hours prior to docetaxel, compared to docetaxel alone): significantly decreased tumor size | synergy between A3 and docetaxel, colony formation (A549 cells [2]; A549 after CHFR or PARP1 knockdown): not after CHFR or PARP1 knockdown | synergy between A3 and docetaxel, colony formation (A549 cells [2]; A549 scrambled shRNA): Synergy between A3 and docetaxel was maintained only in the A549 scramble cell line | nuclear localization of CHFR (CHFR): depletion of nuclear CHFR and accumulation of cytoplasmic CHFR
